What all share (assay type): cell-based
Experiment [1] deals with p-EGFR Del19/C797S (H1975-clone #23 cells) (Homo sapiens, UniProt P00533). Briefly: Cell p-EGFR inhibition assay, HTRF, H1975-clone#23 (DEL19/C797S) cells. The settings on record: 16 h treatment; for Imax (%): maximum percentage of pEGFR inhibition; for pIC50: pEGFR inhibition. In short, it runs like this: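 Phospho-EGFR read by overnight HTRF on lysates, normalized to DMSO-treated high control; IC50, Hill slope and Imax fitted. Compounds were applied for 16 h (10 uM top, 5-fold steps, 8 doses) to an H1975 single clone carrying only exogenous Del19/C797S EGFR after sgRNA knockout of endogenous copies.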

The target of experiment [2] is T1, p-EGFR L858R (BaF3-L858R cells) (Homo sapiens, UniProt P00533, L858R).
T1 construct: host or cells: BaF3
Briefly: Cell p-EGFR inhibition assay, HTRF, BaF3-L858R cells. The settings on record: 16 h treatment; for Imax (%): maximum percentage of pEGFR inhibition; for pIC50: pEGFR inhibition. In short, it runs like this: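 BaF3-L858R cells treated 16 h at 37 °C, 5% CO2 with compound from 10 uM top, 5-fold dilutions, 8 doses, in 0.1% DMSO medium. Lysates read overnight by HTRF p-EGFR antibodies; IC50 fitted to four-parameter curve against DMSO high control.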

Experiment [3] concerns the target T2, EGFR-L858R/C797S (H1975-clone #8 cells) (Homo sapiens, UniProt P00533, C797S/L858R).
T2 construct: expressed in transfected cells; host or cells: H1975 (endogenous EGFR knocked out, clone #8)
Briefly: Cell degradation of EGFR, HTRF assay, H1975-clone#8 (L858R/C797S) cells. To be noted: 16 h treatment; for DC50: EGFR degradation; for Dmax: maximum percentage of degradation.

The target in experiment [4] is T3, EGFR L858R (BaF3-L858R cells) (Homo sapiens, UniProt P00533, L858R).
T3 construct: host or cells: BaF3
The experiment in a line: Cell degradation of EGFR, HTRF assay, BaF3-L858R cells. The settings on record: 16 h treatment; for DC50: EGFR degradation; for Dmax: maximum percentage of degradation. A digest of the protocol: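 BaF3-L858R cells treated 16 h at 37° C, 5% CO2 with compound (top 10 uM final, 5-fold, 8 doses, 0.1% DMSO). DC50 from four-parameter fit; Dmax is maximum percent degradation.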

pIC50: −log10 of the molar value.

`Cc1cc2cc(n1)-c1cnn(C)c1OC[C@H]1CCC(C1)CN1/C(=N/C2=O)Nc2ccc(N3CCC(CN4CC(Nc5cc(F)c([C@H]6CCC(=O)NC6=O)c(F)c5)C4)CC3)cc21` [Example 132, (R)-3-(4-((1-((1-((7^1R,7^3S,E)-1^1,2^6-dimethyl-3-oxo-5^2,5^3-dihydro-1^1H,5^1H-9-oxa-4-aza-5(2,1)-benzo[d]imidazola-2(2,4)-pyridina-1(4,5)-pyrazola-7(1,3)-cyclopentanacyclononaphane-5^6-yl)piperidin-4-yl)methyl)azetidin-3-yl)amino)-2,6-difluorophenyl)piperidine-2,6-dione]: in experiment [1], the “Imax (%)” value came to 100.62% and the pIC50 was 9.20. Further, in experiment [2], the “Imax (%)” value came out at 97.32% and the pIC50 was 7.20. Also, in experiment [3], half-maximal degradation (DC50) was put at 2.05 nM and the Dmax was determined as 66%. In experiment [4], this compound had a DC50 of 3.22 nM and a Dmax of 81%.
As to `COC[C@@H]1CN(c2ccc3c(c2)N2CC4CC[C@H](COc5c(c(C)nn5C)-c5cc(cc(C)n5)C(=O)/N=C/2N3)C4)CCN1C1CCN(c2c(F)cc(NC3CCC(=O)NC3=O)cc2F)CC1` (stereo partly drawn) [Example 133, 3-((3,5-difluoro-4-(4-((S)-2-(methoxymethyl)-4-((7R,7^3S,E)-1^1,1^3,2^6-trimethyl-3-oxo-5^2,5^3-dihydro-1^1H,5^1H-9-oxa-4-aza-5(2,1)-benzo[d]imidazola-2(2,4)-pyridina-1(4,5)-pyrazola-7(1,3)-cyclopentanacyclononaphane-5^6-yl)piperazin-1-yl)piperidin-1-yl)phenyl)amino)piperidine-2,6-dione], in experiment [1], the “Imax (%)” value turned out to be 99.55% and the pIC50 is 8.84. Further, in experiment [2], the “Imax (%)” value is reported as 96.88% and the pIC50 is 8.54. In experiment [3], this compound came in with a DC50 of 2.94 nM and a Dmax of 86.5%. Also, in experiment [4], it took 2.36 nM to reach half-maximal degradation (DC50) and the Dmax is 85.7%.
For the compound `COC[C@@H]1CN(c2ccc3c(c2)N2CC4CC[C@H](COc5c(cnn5C)-c5cc(cc(C)n5)C(=O)/N=C/2N3)C4)CCN1C1CN(C2CCN(c3cc(F)c([C@H]4CCC(=O)NC4=O)c(F)c3)CC2)C1` [Example 108, (R)-3-(4-(4-(3-((S)-4-((7^1R,7^3S,E)-1^1,2^6-dimethyl-3-oxo-5^2,5^3-dihydro-1^1H,5^1H-9-oxa-4-aza-5(2,1)-benzo[d]imidazola-2(2,4)-pyridina-1(4,5)-pyrazola-7(1,3)-cyclopentanacyclononaphane-5^6-yl)-2-(methoxymethyl)piperazin-1-yl)azetidin-1-yl)piperidin-1-yl)-2,6-difluorophenyl)piperidine-2,6-dione], in experiment [1], the “Imax (%)” value is reported as 100.3% and the negative-log IC50 (pIC50) was 9.22. In addition, in experiment [2], the “Imax (%)” value is listed as 95.9% and the pIC50 is 8.11. In experiment [3], this compound yielded a DC50 of 0.75 nM and a Dmax of 77%. In experiment [4], the DC50 worked out at 3.32 nM and the Dmax was found to be 87.3%.
Take `Cc1cc2cc(n1)-c1c(C)nn(C)c1OC[C@H]1CCC(C1)CN1/C(=N/C2=O)Nc2ccc(N3CCC(N(C)C4CCN(c5cc(F)c([C@H]6CCC(=O)NC6=O)c(F)c5)CC4)CC3)cc21` [Example 136, (R)-3-(2,6-difluoro-4-(4-(methyl(1-((7^1R,7^3S,E)-1^1,1^3,2^6-trimethyl-3-oxo-5^2,5^3-dihydro-1^1H,5^1H-9-oxa-4-aza-5(2,1)-benzo[d]imidazola-2(2,4)-pyridina-1(4,5)-pyrazola-7(1,3)-cyclopentanacyclononaphane-5^6-yl)piperidin-4-yl)amino)piperidin-1-yl)phenyl)piperidine-2,6-dione]: in experiment [1], the “Imax (%)” value was found to be 103.49% and the pIC50 was 8.84. Besides, in experiment [2], the “Imax (%)” value is 104.73% and the pIC50 was 8.05. In experiment [3], this compound registered a DC50 of 0.152 nM and a Dmax of 76.1%. Also, in experiment [4], the DC50 is 3.52 nM and the Dmax was found to be 81.1%.
`Cc1cc2cc(n1)-c1c(C)nn(C)c1OC[C@H]1CC[C@H](C1)CN1/C(=N/C2=O)Nc2ccc(N3CCN(CC4CN(c5cc(F)c([C@H]6CCC(=O)NC6=O)c(F)c5)C4)[C@@H](CF)C3)cc21` [Example 210, (R)-3-(2,6-difluoro-4-(3-(((R)-2-(fluoromethyl)-4-((7R,7^3S,E)-1^1,1^3,2^6-trimethyl-3-oxo-5^2,5^3-dihydro-1^1H,5^1H-9-oxa-4-aza-5(2,1)-benzo[d]imidazola-2(2,4)-pyridina-1(4,5)-pyrazola-7(1,3)-cyclopentanacyclononaphane-5^6-yl)piperazin-1-yl)methyl)azetidin-1-yl)phenyl)piperidine-2,6-dione]: the “Imax (%)” value in experiment [1] was determined as 99.96%; in experiment [2] it was 89.17%. Moreover, the pIC50 was 8.81 in experiment [1] and 8.98 in experiment [2]. Also, the half-maximal degradation concentration (DC50) in experiment [3] is 3.72 nM; in experiment [4], 0.74 nM. For the same compound, the figures for the maximal degradation (Dmax) in experiment [3] and in experiment [4] were 86.9% and 90.2%, respectively.
Consider `Cc1cc2cc(n1)-c1cnn(C)c1OC[C@H]1CCC(C1)CN1/C(=N/C2=O)Nc2ccc(N3CC4(CCN(C5CCN(c6cc(F)c([C@H]7CCC(=O)NC7=O)c(F)c6)CC5)CC4)C3)cc21` [Example 125, (R)-3-(4-(4-(2-((7^1R,7^3S,E)-1^1,2^6-dimethyl-3-oxo-5^2,5^3-dihydro-1^1H,5^1H-9-oxa-4-aza-5(2,1)-benzo[d]imidazola-2(2,4)-pyridina-1(4,5)-pyrazola-7(1,3)-cyclopentanacyclononaphane-5^6-yl)-2,7-diazaspiro[3.5]nonan-7-yl)piperidin-1-yl)-2,6-difluorophenyl)piperidine-2,6-dione], for which the “Imax (%)” value is recorded as 101.9% in experiment [1] and 98.6% in experiment [2]. Besides, the pIC50 in experiment [1] is 8.66; in experiment [2] it was 7.69. Besides, the values for the DC50 in experiment [3] and in experiment [4] were 2.61 nM and 1.37 nM, respectively. In addition, the results for the maximal degradation (Dmax) in experiment [3] and in experiment [4] were 67.4% and 77.1%, respectively.
Consider `COC[C@H]1CN(c2ccc3c(c2)N2C[C@@H]4CC[C@H](COc5c(cnn5C)-c5cc(cc(C)n5)C(=O)/N=C/2N3)C4)CCN1C1CCN(c2cc(F)c([C@H]3CCC(=O)NC3=O)c(F)c2)CC1` [Example 64, (R)-3-(4-(4-((R)-4-((7^1R,7^3S,E)-1^1,2^6-dimethyl-3-oxo-5^2,5^3-dihydro-1^1H,5^1H-9-oxa-4-aza-5(2,1)-benzo[d]imidazola-2(2,4)-pyridina-1(4,5)-pyrazola-7(1,3)-cyclopentanacyclononaphane-5^6-yl)-2-(methoxymethyl)piperazin-1-yl)piperidin-1-yl)-2,6-difluorophenyl)piperidine-2,6-dione], for which, in experiment [1], the “Imax (%)” value is listed as 101.2% and the pIC50 is 9.15. Also, in experiment [2], the “Imax (%)” value is listed as 101.9% and the pIC50 was 8.49. In experiment [3], this compound gave a DC50 of 1.87 nM and a Dmax of 70%. In experiment [4], the DC50 is 1.07 nM and the Dmax is 83.3%.
Regarding `Cc1cc2cc(n1)-c1cnn(C)c1OC[C@H]1CCC(C1)CN1/C(=N/C2=O)Nc2ccc(N3CCN(C4CCN(c5ccc(NC6CCC(=O)NC6=O)nc5C)CC4)CC3)cc21` (stereo partly drawn) [Example 98, 3-((5-(4-(4-((7^1R,7^3S,E)-1^1,2^6-dimethyl-3-oxo-5^2,5^3-dihydro-1^1H,5^1H-9-oxa-4-aza-5(2,1)-benzo[d]imidazola-2(2,4)-pyridina-1(4,5)-pyrazola-7(1,3)-cyclopentanacyclononaphane-5^6-yl)piperazin-1-yl)piperidin-1-yl)-6-methylpyridin-2-yl)amino)piperidine-2,6-dione], the “Imax (%)” value is listed as 101.3% in experiment [1] and 110.3% in experiment [2]. Also, the pIC50 is 8.85 in experiment [1] and 8.33 in experiment [2]. Besides, the DC50 stood at 2.49 nM in experiment [3] and 2.6 nM in experiment [4]. For the same compound, the results for the greatest degradation seen (Dmax) in experiment [3] and in experiment [4] were 75% and 80.6%, respectively.
As for `COC[C@H]1CN(c2cc3c(cc2C)N/C2=N\C(=O)c4cc(C)nc(c4)-c4c(C)nn(C)c4OC[C@H]4CC[C@H](C4)CN23)CCN1C1CCN(c2cc(F)c([C@H]3CCC(=O)NC3=O)c(F)c2)CC1` [Example 172, (R)-3-(2,6-difluoro-4-(4-((R)-2-(methoxymethyl)-4-((7^1R,7^3S,E)-1^1,1^3,2^6° 5^5-tetramethyl-3-oxo-5^2,5^3-dihydro-1^1H,5^1H-9-oxa-4-aza-5(2,1)-benzo[d]imidazola-2(2,4)-pyridina-1(4,5)-pyrazola-7(1,3)-cyclopentanacyclononaphane-5^6-yl)piperazin-1-yl)piperidin-1-yl)phenyl)piperidine-2,6-dione], in experiment [1], the “Imax (%)” value was determined as 103.44% and the pIC50 was 8.56. In addition, in experiment [2], the “Imax (%)” value is recorded as 100% and the pIC50 is 8.21. In experiment [3], the DC50 amounted to 0.909 nM and the Dmax came to 85.6%. In experiment [4], this compound showed a DC50 of 5.09 nM and a Dmax of 84.8%.

Source of the values: patent US20240425523A1, “Compounds for the Degradation of EGFR Kinase” (Beigene Switzerland GMBH, priority 2023, published 2024).
